Results on 10 compounds are retold here after patent US20260308177A1, “THIAZOLOPYRIDIN-7(4H)-ONE WRN INHIBITORS” (NIMBUS WADJET, INC., priority 2023, published 2026).

One assay concerns the target T1, p21 in HCT116 cells (Homo sapiens, UniProt Q14191).
T1 construct: p21 induction in-cell western, 24 h
Kind of assay: p21 induction in HCT116 cells. Format: cell-based. The settings on record: 24 h, p21/GAPDH signal ratio, % activation vs internal reference WRN inhibitor, read-out: P21_EC50. How it is done:
(§1) Example 3: Method for Determining Effect on p21 Induction in Cells
(§2) The colon carcinoma cell line HCT116 was obtained from ATCC and cultured in growth medium consisting of Mccoy's 5A Medium (Gibco 16600108) supplemented with 10% FBS (Transgene FS201-02) and 100 units/mL penicillin-streptomycin (Gibco 15140122) and maintained at 37° C. under 5% CO2. On the day of seeding, 2,000 cells in 30 μL of culture media were plated per well to Poly-D-Lysine 384 Well Black Clear Plates (Biocoat 356663) and incubated overnight at 37° C. under 5% CO2. The following day, compounds were serially diluted in DMSO for a total of 11 test concentrations. The typical starting concentration of cpds was 10 uM with 2-fold dilutions. Next, 150 nL of diluted compound was added in duplicate to the assay plate, using an Echo 655 (Labcyte). The plate was centrifuged at 500 RPM for 1 min and then incubated at 37° C. under 5% CO2 for 24 h. After 24 h, medium was removed, and cells were fixed by adding 40 μL of 4% paraformaldehyde solution to each well and incubated for 20 min at room temperature. The plate was then washed 4 times with 100 μL per well of wash buffer (PBS with 0.1% Tween-20) using a microplate washer. Next, 30 μL of ice-cold methanol was added to each well and the plate was incubated at −20° C. for 10 min. The plate was washed 4 times with 100 µL per well of wash buffer by a microplate washer, then 30 μL per well of blocking buffer ((Intercept PBS blocking buffer (LI-COR 927-70001) with 0.05% Tween-20)) was added and the plate was incubated at room temperature with shaking for 2 h. Next, to each test well, 20 μL of primary antibody solution ((p21 Waf1/CIP (12D1) Rabbit mAb (Cell Signaling Technologies 2947) diluted 1:1000 and GAPDH (D4C6R) Mouse mAb (Cell Signaling Technologies 97166) diluted 1:2000 in blocking buffer)) was added and the plate was placed at 4° C., overnight. The following day, the plate was washed 5 times with 100 μL per well of wash buffer using a microplate washer for 5 min. 20 μL per well of secondary antibody ((IRDye 680CW Goat anti-Mouse IgG (H+L) (LI-COR 926-68070) diluted 1: 2000 in Blocking Buffer and IRDye 800CW Goat anti-Rabbit IgG (H+L) (LI-COR 926-32211) diluted 1: 2000 in Blocking Buffer)) was then added and the plate was stored for 2 h in the dark at room temperature with shaking. The plate was then washed 4 times with 100 μL per well of wash buffer again using a microplate washer. Finally, the p21 signal and the GAPDH signal were quantified using a LI-COR Odyssey CLx Imager machine reading at 800 nm and 700 nm, respectively. Each plate contained DMSO control (low control) and an internal reference WRN inhibitor (high control) respectively. For quantitation, the 800 nm/700 nm ratio was calculated for each well to give fold p21 induction and then percent activation for each compound well was calculated as follows ((100×(ratio cpd well-ratio low control)/(ratio high control−ratio low control)). EC50 values for each compound was generated after non-linear regression curve fitting using commercially available software.

For assay [1], the target named is T2, human Werner helicase (WRN-BV08, amino acids 517-1235, L1074F) (Homo sapiens, UniProt Q14191, L1074F).
T2 construct: TEV-cleavable 8×His tag (C, cleaved yes); made in house; host or cells: Sf9 insect cells (baculovirus)
T2 sequence (Q14191 with tags, fused parts or gaps L1074F): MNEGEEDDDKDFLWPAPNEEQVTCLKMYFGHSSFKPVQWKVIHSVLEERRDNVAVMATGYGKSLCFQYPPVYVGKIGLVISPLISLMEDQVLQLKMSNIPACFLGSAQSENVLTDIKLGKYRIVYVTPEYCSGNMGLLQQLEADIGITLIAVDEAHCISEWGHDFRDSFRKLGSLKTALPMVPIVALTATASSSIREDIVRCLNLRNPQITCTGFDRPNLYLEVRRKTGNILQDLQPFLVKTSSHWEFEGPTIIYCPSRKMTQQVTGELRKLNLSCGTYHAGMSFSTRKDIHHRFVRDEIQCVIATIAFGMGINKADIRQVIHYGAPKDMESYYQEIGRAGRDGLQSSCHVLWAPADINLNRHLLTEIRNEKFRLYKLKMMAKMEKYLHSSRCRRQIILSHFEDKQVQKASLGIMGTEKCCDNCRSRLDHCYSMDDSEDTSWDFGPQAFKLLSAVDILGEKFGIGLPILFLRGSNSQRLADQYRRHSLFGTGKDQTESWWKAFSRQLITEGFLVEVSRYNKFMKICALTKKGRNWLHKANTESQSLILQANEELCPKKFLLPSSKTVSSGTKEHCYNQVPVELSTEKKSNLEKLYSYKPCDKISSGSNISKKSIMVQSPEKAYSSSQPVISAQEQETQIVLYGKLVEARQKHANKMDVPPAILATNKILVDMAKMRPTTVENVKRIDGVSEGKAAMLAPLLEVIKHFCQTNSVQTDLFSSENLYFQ
As to the kind of experiment: WRN (BV08) ADP-Glo Assay (ATPase inhibition). Format: biochemical. The source says:
Example 2: WRN (BV08) ADP-Glo Assay Protocol
Bovine skin gelatin (BSG), dimethyl sulfoxide (DMSO), Pluronic F-127 and tris(2-carboxyethyl)phosphine hydrochloride solution (TCEP) were purchased from Sigma-Aldrich (St. Louis, MO) at the highest level of purity possible. Bicine buffer solution was purchased from Alfa Aesar (Tewksbury, MA) and compound NSC-617145 was purchased from Tocris (Minneapolis, MN). DNA duplex was synthesized at BGI (Shenzhen, China) and was composed of strand 1 with the sequence 5′-[…]-3′ (SEQ ID NO.: 1) and strand 2 with the sequence 5′-[…]-3′ (SEQ ID NO.: 2). DNA strands were annealed by heating to 95° C. for 5 minutes followed by slow cooling to room temperature. Compounds in 100% DMSO (0.1 μl) were spotted into a 384-well white polystyrene Optiplate-384 (Perkin Elmer; Waltham, MA) assay plate using a LabCyte Echo 550 (Agilent; Santa Clara, CA). DMSO (0.1 μl) was added to columns 12, rows A-H and column 24, rows I-P for the maximum signal control. Compound NSC-617145 (0.1 μl) was added to columns 12, rows I-P and 24, rows A-H for the minimum signal control (100% inhibition). Compounds/DMSO were preincubated for 15 minutes at 25° C. with 5 μl 2×WRN (BV08), prepared as described below, in assay buffer containing 20 mM Bicine (pH=7.5), 1 mM MgCl2, 10 mM KCl, 0.1% Pluronic F-127, 0.005% BSG, 1 mM TCEP. The reaction was initiated by the addition of 5 μl 2× substrate mixture in assay buffer and incubated for 60 minutes at 25° C. The final concentrations of the assay components were 0.15 nM WRN, 5 μM ATP, and 0.1 nM DNA duplex. The final DMSO concentration was 1% and the reference compound concentration (NSC-617145) used for the minimal signal control was 20 μM. The reaction was stopped by the addition of the ADP-Glo Kit components (Promega; Madison, WI) as directed and the relative luminescence units (RLU) were read on an Envision 2104 (Perkin Elmer; Waltham, MA). % inhibition calculation:
Where RLU=relative luminescence units, sample=signal in sample well, and MIN and MAX are the respective minimum and maximum signal controls.
Four-parameter IC50 fit equation:
Where top and bottom are normally allowed to float but may be fixed at 100 or 0 respectively in a 3-parameter fit. Y is the % inhibition and X is the compound concentration.
Molecular Biology and virus production. The DNA encoding human Werner helicase (Uniprot Q14191, amino acids 517-1235 with L1074F point mutation) was generated with codon-optimization for E. coli expression and subcloned into the pFastBac vector with a TEV cleavable 8×His tag (WRN—BV08). The baculovirus from the expression plasmid WRN—BV08 was generated from transfection and amplification following the manufacturer's instructions.
Sf9 cells grown in SF900II media were infected with 1:200 WRN—BV08 P2 virus and incubated for protein expression for 72 h at 27° C. The WRN protein was purified using the following protocol. The cell pellets were thawed and resuspended in buffer A (50 mM Tris, pH 7.5, 500 mM NaCl, 1 mM TCEP, 10% Glycerol) supplemented with 0.5% CHAPS, 1 mM [COMPOUND LEFT OUT], 1 μg/ml Leupeptin, 1 μg/ml Pepstatin, and the Pierce Universal Nuclease and cocktail tablet. Cleared lysates were loaded onto a Ni Sepharose™ excel column and washed with buffer A and bound protein was eluted with buffer A supplemented with 300 mM imidazole. The eluted protein was dialyzed against buffer A and digested by His-tagged TEV (1:5 ratio) overnight at 4° C. ZnCl2 was added into the sample at final 15 μM before loading onto a second Ni Sepharose™ excel column. Untagged WRN protein was eluted from the column with buffer A supplemented with 20 mM imidazole, dialyzed overnight into buffer B (50 mM Tris, pH 7.5, 1 mM TCEP, 10% Glycerol) supplemented with 150 mM NaCl and loaded onto a Heparin column. Proteins were eluted with a step gradient of buffer B supplemented with 150 mM, 200 mM, 300 mM and 500 mM NaCl. […]

The nature of assay [2]: p21 induction in HCT116 cells. The assay is classed as cell-based, human. The settings on record: read-out: P21_EC50, 24 h, p21/GAPDH signal ratio, % activation vs internal reference WRN inhibitor. How it is done:
as §1, §2

[3] abbreviates: 0.15 nM WRN, 5 μM ATP, 0.1 nM DNA duplex, pH 7.5, 15 min preincubation, 60 min at 25° C., 1% DMSO, read-out: ADP-Glo_hWRN_IC50.

Where two headings read alike, the source gives them in different places. A value given as a limit tells only on which side of the number the result lay.

T1 sequence (Q14191 whole entry): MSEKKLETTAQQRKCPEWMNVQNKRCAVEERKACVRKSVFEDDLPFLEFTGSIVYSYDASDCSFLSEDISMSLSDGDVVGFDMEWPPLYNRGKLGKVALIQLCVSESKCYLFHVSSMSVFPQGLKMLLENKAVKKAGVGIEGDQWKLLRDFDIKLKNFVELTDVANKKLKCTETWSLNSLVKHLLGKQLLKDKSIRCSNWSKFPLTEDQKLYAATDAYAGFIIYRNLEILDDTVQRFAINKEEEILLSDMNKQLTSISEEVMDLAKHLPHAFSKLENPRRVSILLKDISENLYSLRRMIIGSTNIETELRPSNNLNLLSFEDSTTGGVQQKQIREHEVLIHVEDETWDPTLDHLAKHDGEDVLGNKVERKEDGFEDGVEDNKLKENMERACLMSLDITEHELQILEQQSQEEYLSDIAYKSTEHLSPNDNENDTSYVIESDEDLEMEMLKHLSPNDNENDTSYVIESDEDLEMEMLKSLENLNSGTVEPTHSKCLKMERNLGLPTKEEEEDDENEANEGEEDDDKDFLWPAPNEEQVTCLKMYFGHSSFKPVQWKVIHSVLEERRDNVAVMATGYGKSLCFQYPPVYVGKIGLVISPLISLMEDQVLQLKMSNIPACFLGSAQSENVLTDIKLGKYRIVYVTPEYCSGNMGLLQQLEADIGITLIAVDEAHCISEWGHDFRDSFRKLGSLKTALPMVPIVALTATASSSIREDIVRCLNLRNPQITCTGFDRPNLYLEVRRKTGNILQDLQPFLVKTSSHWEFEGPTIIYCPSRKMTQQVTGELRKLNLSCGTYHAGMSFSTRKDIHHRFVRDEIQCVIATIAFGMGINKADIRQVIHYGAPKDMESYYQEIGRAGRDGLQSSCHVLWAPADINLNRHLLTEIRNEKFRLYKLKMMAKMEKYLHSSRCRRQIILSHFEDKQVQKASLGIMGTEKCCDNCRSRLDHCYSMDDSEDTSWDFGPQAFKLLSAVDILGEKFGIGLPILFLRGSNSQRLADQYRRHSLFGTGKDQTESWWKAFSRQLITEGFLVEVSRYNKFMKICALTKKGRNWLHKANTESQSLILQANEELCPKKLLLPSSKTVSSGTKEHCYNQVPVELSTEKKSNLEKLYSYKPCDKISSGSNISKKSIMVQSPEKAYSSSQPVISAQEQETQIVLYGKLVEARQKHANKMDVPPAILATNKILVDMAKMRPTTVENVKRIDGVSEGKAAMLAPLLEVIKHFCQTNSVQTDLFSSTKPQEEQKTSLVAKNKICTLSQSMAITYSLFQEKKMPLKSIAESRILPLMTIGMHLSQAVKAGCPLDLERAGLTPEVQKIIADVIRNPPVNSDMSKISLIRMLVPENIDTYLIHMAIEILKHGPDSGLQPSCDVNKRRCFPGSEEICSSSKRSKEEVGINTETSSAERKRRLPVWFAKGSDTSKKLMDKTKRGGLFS

Consider `CCc1c(N2CCN(C(=O)c3ncnc(C)c3O)CC2)c(=O)c2nc(C3=CCOCC3)sc2n1CC(=O)Nc1ccc(C(F)(F)F)cc1Cl` [1-3], for which the EC50 at p21 in HCT116 cells lay in the range of 2000 to 5000 nM. In the case of `CCc1c(N2CCN(C(=O)c3ncnc(C)c3O)CC2)c(=O)c2nc(-c3cnn(C)c3)sc2n1CC(=O)Nc1ccc(C(F)(F)F)cc1Cl` [1-7], the IC50 in assay [1] (setting [3]) is 5 to 50 nM. Regarding `CCc1c(N2CCN(C(=O)c3ncnc(C)c3O)CC2)c(=O)c2nc(-c3ccnc(OC)c3)sc2n1CC(=O)Nc1ccc(C(F)(F)F)cc1Cl` [Compound I-1, N-(2-chloro-4-(trifluoromethyl)phenyl)-2-(5-ethyl-6-(4-(5-hydroxy-6-methylpyrimidine-4-carbonyl)piperazin-1-yl)-2-(2-methoxypyridin-4-yl)-7-oxothiazolo[5,4-b]pyridin-4(7H)-yl)acetamide], in assay [1] (setting [3]), the IC50 was 5 to 50 nM. The EC50 at p21 in HCT116 cells was in the range of 500 to 2000 nM. For `CCc1c(N2CCN(C(=O)c3ncnc(C)c3O)CC2)c(=O)c2sc(-c3ccnc(OC)c3)nc2n1CC(=O)Nc1ccc(C(F)(F)F)cc1Cl` [Compound I-2, N-(2-chloro-4-(trifluoromethyl)phenyl)-2-(5-ethyl-6-(4-(5-hydroxy-6-methylpyrimidine-4-carbonyl)piperazin-1-yl)-2-(2-methoxypyridin-4-y1)-7-oxothiazolo[4,5-b]pyridin-4(7H)-yl)acetamide], the IC50 in assay [1] (setting [3]) was under 5 nM. Also, the EC50 at p21 in HCT116 cells is under 500 nM. As to `CCc1c(N2CCN(C(=O)c3ncnc(C)c3O)CC2)c(=O)c2nc(C3=CCOCC3)sc2n1CC(=O)Nc1ccc(C(F)(F)F)cc1Cl` [Compound I-3, N-(2-chloro-4-(trifluoromethyl)phenyl)-2-(2-(3,6-dihydro-2H-pyran-4-y1)-5-ethyl-6-(4-(5-hydroxy-6-methylpyrimidine-4-carbonyl)piperazin-1-yl)-7-oxothiazolo[5,4-b]pyridin-4(7H)-yl)acetamide], the IC50 in assay [1] (setting [3]) was in the range of 5 to 50 nM. Turning to `CCc1c(N2CCN(C(=O)c3ncnc(C)c3O)CC2)c(=O)c2nc(N3CCCC3)sc2n1CC(=O)Nc1ccc(C(F)(F)F)cc1Cl` [Compound I-4, N-(2-chloro-4-(trifluoromethyl)phenyl)-2-(5-ethyl-6-(4-(5-hydroxy-6-methylpyrimidine-4-carbonyl)piperazin-1-yl)-7-oxo-2-(pyrrolidin-1-yl)thiazolo[5,4-b]pyridin-4(7H)-yl)acetamide], the IC50 in assay [1] (setting [3]) was 5 to 50 nM. In addition, the EC50 at p21 in HCT116 cells lay in the range of 2000 to 5000 nM. In the same order, the values of `CCc1c(N2CCN(C(=O)c3c(O)ccnc3OC)CC2)c(=O)c2nc(-c3ccnc(OC)c3)sc2n1CC(=O)Nc1ccc(C(F)(F)F)cc1Cl` [Compound I-5, N-(2-chloro-4-(trifluoromethyl)phenyl)-2-(5-ethyl-6-(4-(4-hydroxy-2-methoxynicotinoyl)piperazin-1-y1)-2-(2-methoxypyridin-4-y1)-7-oxothiazolo[5,4-b]pyridin-4(7H)-y1)acetamide] are 5 to 50 nM and 500 to 2000 nM.

Compound `C=C(C)c1nc2c(=O)c(N3CCN(C(=O)c4ncnc(C)c4O)CC3)c(CC)n(CC(=O)Nc3ccc(C(F)(F)F)cc3Cl)c2s1` [Compound I-6, N-(2-chloro-4-(trifluoromethyl)phenyl)-2-(5-ethyl-6-(4-(5-hydroxy-6-methylpyrimidine-4-carbonyl)piperazin-1-yl)-7-oxo-2-(prop-1-en-2-yl)thiazolo[5,4-b]pyridin-4(7H)-yl)acetamide] yielded an IC50 in assay [1] of 5 to 50 nM. Further, the EC50 in assay [2] was 500 to 2000 nM. For the compound `CCc1c(N2CCN(C(=O)c3ncnc(C)c3O)CC2)c(=O)c2nc(-c3cnn(C)c3)sc2n1CC(=O)Nc1ccc(C(F)(F)F)cc1Cl` [Compound I-7, N-(2-chloro-4-(trifluoromethyl)phenyl)-2-(5-ethyl-6-(4-(5-hydroxy-6-methylpyrimidine-4-carbonyl)piperazin-1-y1)-2-(1-methyl-1H-pyrazol-4-y1)-7-oxothiazolo[5,4-b]pyridin-4(7H)-yl)acetamide], the EC50 on p21 in HCT116 cells is over 5000 nM. Turning to `CCc1c(N2CCN(C(=O)c3ncnc(C)c3O)CC2)c(=O)c2sc(-c3ccnc(OC)c3)nc2n1CC(=O)NC12CC(C(F)(F)F)(C1)C2` [Compound I-8, 2-(5-ethyl-6-(4-(5-hydroxy-6-methylpyrimidine-4-carbonyl)piperazin-1-yl)-2-(2-methoxypyridin-4-y1)-7-oxothiazolo[4,5-b]pyridin-4(7H)-y1)-N-(3-(trifluoromethyl)bicyclo[1.1.1]pentan-1-yl)acetamide], the IC50 in assay [1] (setting [3]) lay within 5 to 50 nM. Further, the EC50 at p21 in HCT116 cells is over 5000 nM.
